Data set [1] concerns HT-29. As to the kind of experiment: Selectivity index, ratio of IC50 for HDF to IC50 for human HT-29 cells.
The nature of data set [2]: Cytotoxicity against HDF after 24 hrs by MTT assay. As to conditions: Homo sapiens. For orientation: Tetrazolium dyes change colour on reduction, which living cells bring about.
Another data set concerns Leishmania donovani. In words: Antitrypanosomal activity against amastigotes of Leishmania donovani MHOM/ET/67/L82 after 72 hrs by inverted microscope analysis. Format: functional, organism-based. As to conditions: MHOM/ET/67/L82, 72 h.
For data set [3], the system named is Trypanosoma brucei rhodesiense. In words: Antitrypanosomal activity against bloodstream forms of Trypanosoma brucei rhodesiense STIB 900 after 72 hrs by alamar blue assay. Format: functional, organism-based. The following applies: STIB 900, 72 h.
The species named for data set [4] is Bos taurus. As to the kind of experiment: Inhibition of electron transport protein complex 2 in bovine hear mitochondria assessed as reduction of succinate-induced oxygen consumption at 5 uM.
The species entered for data set [5] is Bos taurus. In words: Inhibition of electron transport protein complex 1 in bovine hear mitochondria assessed as reduction of NADH-induced oxygen consumption at 5 uM.
Another data set concerns L6. In words: Cytotoxicity against rat L6 cells after 72 hrs by alamar blue assay. As to conditions: L6, 72 h. Format: cell-based. Background: Alamar Blue is a resazurin reagent that responds to reducing activity.
A short description of data set [6]: Inhibition of recombinant Trypanosoma brucei GAPDH assessed as oxidative phosphorylation of D-glyceraldehyde-3-phosphate to 1,3-bisphosphoglycerate by spectrophotometric method.
The subject of data set [7] is IGROV-1. In words: Cytotoxicity against human IGROV1 cells after 24 hrs by MTT assay. Format: functional, cell-based. As to conditions: IGROV-1, 24 h.
The species entered for data set [8] is Bos taurus. As to the kind of experiment: Inhibition of electron transport protein complex 1 in bovine hear mitochondria assessed as reduction of NADH-induced ROS production at 10 uM by fluorescence plate reader analysis.
Data set [9] deals with HT-29. In words: Cytotoxicity against human HT-29 cells after 24 hrs by MTT assay. Format: functional, cell-based. As to conditions: HT-29, 24 h.
The nature of data set [10]: Selectivity index, ratio of IC50 for rat L6 cells to IC50 for amastigotes of Leishmania donovani MHOM/ET/67/L82. Format: toxicity, cell-based. The following applies: read-out: Ratio IC50.
Data set [11] concerns IGROV-1. In words: Selectivity index, ratio of IC50 for HDF to IC50 for human IGROV1 cells.
The target of data set [12] is Glyceraldehyde-3-phosphate dehydrogenase (Homo sapiens, UniProt P04406). In words: Inhibition of recombinant human GAPDH assessed as oxidative phosphorylation of D-glyceraldehyde-3-phosphate to 1,3-bisphosphoglycerate by spectrophotometric method.
In the next data set the test system is Trypanosoma brucei. In words: Inhibition of recombinant Trypanosoma brucei GAPDH assessed as oxidative phosphorylation of D-glyceraldehyde-3-phosphate to 1,3-bisphosphoglycerate at 5 uM by spectrophotometric method relative to 2-phenoxy-1,4-naphthoquinone.
The nature of data set [13]: Selectivity index, ratio of IC50 for rat L6 cells to IC50 for bloodstream forms of Trypanosoma brucei rhodesiense STIB 900. Format: toxicity, cell-based. As to conditions: read-out: Ratio IC50.
Data set [14] in a line: Selectivity index, ratio of IC50 for rat L6 cells to IC50 for trypomastigote forms of Trypanosoma cruzi Tulahuen C4. As to conditions: read-out: Ratio IC50. Format: toxicity, cell-based.
The next data set concerns Trypanosoma cruzi. As to the kind of experiment: Antitrypanosomal activity against trypomastigote forms of Trypanosoma cruzi Tulahuen C4 expressing LacZ gene infected in rat L6 cells after 96 hrs by inverted microscope analysis. Format: functional, organism-based. The following applies: Tulahuen C4, L6, 96 h.
Data set [15] is filed under the species Bos taurus. As to the kind of experiment: Inhibition of electron transport protein complex 1 in bovine hear mitochondria assessed as reduction of NADH-induced oxygen consumption up to 10 uM.
The species named for data set [16] is Bos taurus. As to the kind of experiment: Inhibition of electron transport protein complex 1 in bovine hear mitochondria assessed as enzyme activity per min/mg of protein using […] as substrate at 10 uM.

The source made the active and inactive calls. The rule behind the calls is not given here.

Chain of Glyceraldehyde-3-phosphate dehydrogenase (P04406 whole entry): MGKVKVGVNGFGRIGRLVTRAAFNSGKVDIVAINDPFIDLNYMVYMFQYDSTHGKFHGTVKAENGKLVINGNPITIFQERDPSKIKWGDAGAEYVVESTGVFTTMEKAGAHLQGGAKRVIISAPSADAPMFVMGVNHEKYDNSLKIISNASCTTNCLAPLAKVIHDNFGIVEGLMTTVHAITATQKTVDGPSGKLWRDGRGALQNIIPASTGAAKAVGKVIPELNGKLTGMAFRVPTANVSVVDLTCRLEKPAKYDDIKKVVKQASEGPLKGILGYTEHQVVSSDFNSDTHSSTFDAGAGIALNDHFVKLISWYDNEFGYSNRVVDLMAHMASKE

`O=C1C(Oc2ccccc2)=CC(=O)c2c(O)cccc21`: the “Ratio IC50” value was 6.2 in the data set on HT-29 [1] and 5.96 in the data set on IGROV-1 [11]. The IC50 – broadly, the concentration that gives 50% inhibition – is 15 µM in data set [2]; 8.41 µM with Leishmania donovani; 4.43 µM in data set [3]; 0.26 µM in the data set on L6; 11.6 µM in [6]; 2.52 µM in the data set on IGROV-1 [7]. Besides, the IC50 in the data set on HT-29 [9] was found to be 2.42 µM; in data set [12], 2.41 µM. The inhibition (as a rule, the relative decrease from the control value, in per cent) in the data set listed under Bos taurus [4] is “inactive”. Moreover, the inhibition was found to be 40% in the data set filed under Bos taurus [5] and 88% in the data set with Trypanosoma brucei. In the data set listed under Bos taurus [8], the inhibition entry was “Active”. Besides, the selectivity ratio in data set [10] came to 0.03; in data set [13] it was 0.06.

Consider `Cc1ccc(OC2=CC(=O)c3ccccc3C2=O)cc1`, for which the selectivity ratio in data set [14] worked out at 2.35; in data set [10] it was 1.12; in data set [13], 1.67. Moreover, the IC50 with Leishmania donovani turned out to be 3.41 µM; in data set [3] it was 2.28 µM; with L6, 3.82 µM; in the data set with Trypanosoma cruzi, 1.62 µM. Further, the inhibition entry in the data set filed under Bos taurus [4] was “inactive”. Besides, the inhibition in the data set on Trypanosoma brucei turned out to be 24%.

In the case of `CC(=O)Nc1ccc(OC2=CC(=O)c3ccccc3C2=O)cc1`, the selectivity ratio in [14] is 0.8; in data set [10], 0.83; in data set [13], 1.39. The IC50 is 4.04 µM with Leishmania donovani, 2.4 µM in data set [3], 3.35 µM with L6 and 4.17 µM in the data set with Trypanosoma cruzi. Moreover, the inhibition entry in the data set listed under Bos taurus [4] is “inactive”. In the data set with Trypanosoma brucei, the inhibition was 68%.

With `O=C1C=C(Oc2ccccc2)C(=O)c2ccccc21`, the “Ratio IC50” value was 2.24 in the data set with HT-29 [1] and 2.87 in the data set with IGROV-1 [11]. The IC50 in [2] is 9.84 µM; in data set [6] it was 5.73 µM; in the data set with IGROV-1 [7] it was 3.43 µM; in the data set on HT-29 [9] it was 4.4 µM; in data set [12], 0.59 µM. For the same compound, in the data set listed under Bos taurus [15], the inhibition result was “inactive”. Moreover, the inhibition entry in the data set listed under Bos taurus [8] was “Active”. The Activity in the data set listed under Bos taurus [16] came to 0.052 µmol/min/mg.

`COc1cccc2c1C(=O)C=C(Oc1ccc(NC(C)=O)cc1)C2=O`: the figures for the selectivity ratio in [14], in [10] and in data set [13] were 1.2, 1.02 and 7.3, respectively. The IC50 in the data set on Leishmania donovani was found to be 4.77 µM; in [3] it was 0.67 µM; in the data set on L6, 4.89 µM; in the data set with Trypanosoma cruzi, 4.06 µM. The inhibition entry in the data set filed under Bos taurus [4] is “inactive”. The inhibition in the data set on Trypanosoma brucei was 52%.

Turning to `COc1cccc2c1C(=O)C(Oc1ccc(F)cc1)=CC2=O`, the “Ratio IC50” value turned out to be 4.4 with HT-29 [1] and 6.87 in the data set on IGROV-1 [11]. Further, the IC50 in data set [2] was determined as 11.9 µM; in the data set with Leishmania donovani, 5.97 µM; in [3], 4.76 µM; in the data set on L6, 0.77 µM; in data set [6], 9.92 µM; in the data set on IGROV-1 [7], 1.73 µM. In addition, the figures for the IC50 (in the data set on HT-29 [9]; in [12]) were 2.7 µM and 1.34 µM, respectively. Moreover, the inhibition entry in the data set listed under Bos taurus [4] was “inactive”. In addition, in the data set listed under Bos taurus [5], the inhibition was found to be 40%. Besides, the inhibition entry in the data set listed under Bos taurus [8] was “Active”. The Activity in the data set filed under Bos taurus [16] amounted to 0.053 µmol/min/mg. The figures for the selectivity ratio in data set [10] and in data set [13] were 0.13 and 0.16, respectively.

For the compound `Cc1ccc(OC2=CC(=O)c3cccc(O)c3C2=O)cc1`, the selectivity ratio in data set [14] came out at 0.54; in data set [10], 1.34; in data set [13], 1.56. Further, the IC50 with Leishmania donovani came to 2.99 µM; in data set [3], 2.58 µM; in the data set on L6 it was 4.03 µM; in the data set with Trypanosoma cruzi it was 7.39 µM. The inhibition entry in the data set filed under Bos taurus [4] is “inactive”. Besides, the inhibition in the data set on Trypanosoma brucei stood at 44%.

`COc1ccc(OC2=CC(=O)c3cc4ccccc4cc3C2=O)cc1`: the entries for the “Ratio IC50” value in the data set on HT-29 [1] and in the data set on IGROV-1 [11] were 4.46 and 7.4, respectively. Also, the IC50 was found to be 17.1 µM in data set [2]; 2.55 µM with Leishmania donovani; 0.38 µM in [3]; 0.24 µM with L6; 15.6 µM in [6]; 2.31 µM with IGROV-1 [7]. Further, the results for the half-maximal inhibitory concentration (IC50) (with HT-29 [9]; in data set [12]) were 3.83 µM and 1.41 µM, respectively. For the same compound, the inhibition result in the data set listed under Bos taurus [4] was “inactive”. The inhibition in the data set filed under Bos taurus [5] was found to be 40%; in the data set with Trypanosoma brucei, 92%. Further, the inhibition entry in the data set listed under Bos taurus [8] is “Active”. Besides, the Activity in the data set listed under Bos taurus [16] stood at 0.029 µmol/min/mg. In addition, the results for the selectivity ratio in data set [10] and in data set [13] were 0.09 and 0.63, respectively.

With `COc1ccc(OC2=CC(=O)c3ccccc3C2=O)cc1`, the selectivity ratio was 1.46 in data set [14], 1.15 in data set [10] and 2.51 in data set [13]. The IC50 in the data set with Leishmania donovani amounted to 5.32 µM; in data set [3], 2.43 µM; in the data set with L6, 6.1 µM; with Trypanosoma cruzi, 4.17 µM. The inhibition result in the data set listed under Bos taurus [4] was “inactive”. Besides, the inhibition with Trypanosoma brucei amounted to 28%.

In the case of `O=C1C=C(Oc2ccc(F)cc2)C(=O)c2ccccc21`, the figures for the selectivity ratio in [14], in data set [10] and in data set [13] were 1.15, 2.47 and 1.11, respectively. Further, the IC50 is 1.82 µM in the data set on Leishmania donovani, 4.06 µM in data set [3], 4.51 µM in the data set on L6 and 3.91 µM in the data set on Trypanosoma cruzi. Further, the inhibition result in the data set filed under Bos taurus [4] was “inactive”. Further, in the data set on Trypanosoma brucei, the inhibition came out at 80%.

These data come from ChEMBL document CHEMBL3603776, “2-Phenoxy-1,4-naphthoquinones: From a Multitarget Antitrypanosomal to a Potential Antitumor Profile” (J Med Chem, 2015).
